Measured values published in patent US9382197B2, “Substituted hydroxamic acids and uses thereof” (Millennium Pharmaceuticals, Inc., priority 2010, dated 2016).

Target: T1, purified human HDAC6 (Homo sapiens, UniProt Q9UBN7)
T1 construct: purchased BPS Bioscience 5006
T1 sequence (Q9UBN7 1-1215): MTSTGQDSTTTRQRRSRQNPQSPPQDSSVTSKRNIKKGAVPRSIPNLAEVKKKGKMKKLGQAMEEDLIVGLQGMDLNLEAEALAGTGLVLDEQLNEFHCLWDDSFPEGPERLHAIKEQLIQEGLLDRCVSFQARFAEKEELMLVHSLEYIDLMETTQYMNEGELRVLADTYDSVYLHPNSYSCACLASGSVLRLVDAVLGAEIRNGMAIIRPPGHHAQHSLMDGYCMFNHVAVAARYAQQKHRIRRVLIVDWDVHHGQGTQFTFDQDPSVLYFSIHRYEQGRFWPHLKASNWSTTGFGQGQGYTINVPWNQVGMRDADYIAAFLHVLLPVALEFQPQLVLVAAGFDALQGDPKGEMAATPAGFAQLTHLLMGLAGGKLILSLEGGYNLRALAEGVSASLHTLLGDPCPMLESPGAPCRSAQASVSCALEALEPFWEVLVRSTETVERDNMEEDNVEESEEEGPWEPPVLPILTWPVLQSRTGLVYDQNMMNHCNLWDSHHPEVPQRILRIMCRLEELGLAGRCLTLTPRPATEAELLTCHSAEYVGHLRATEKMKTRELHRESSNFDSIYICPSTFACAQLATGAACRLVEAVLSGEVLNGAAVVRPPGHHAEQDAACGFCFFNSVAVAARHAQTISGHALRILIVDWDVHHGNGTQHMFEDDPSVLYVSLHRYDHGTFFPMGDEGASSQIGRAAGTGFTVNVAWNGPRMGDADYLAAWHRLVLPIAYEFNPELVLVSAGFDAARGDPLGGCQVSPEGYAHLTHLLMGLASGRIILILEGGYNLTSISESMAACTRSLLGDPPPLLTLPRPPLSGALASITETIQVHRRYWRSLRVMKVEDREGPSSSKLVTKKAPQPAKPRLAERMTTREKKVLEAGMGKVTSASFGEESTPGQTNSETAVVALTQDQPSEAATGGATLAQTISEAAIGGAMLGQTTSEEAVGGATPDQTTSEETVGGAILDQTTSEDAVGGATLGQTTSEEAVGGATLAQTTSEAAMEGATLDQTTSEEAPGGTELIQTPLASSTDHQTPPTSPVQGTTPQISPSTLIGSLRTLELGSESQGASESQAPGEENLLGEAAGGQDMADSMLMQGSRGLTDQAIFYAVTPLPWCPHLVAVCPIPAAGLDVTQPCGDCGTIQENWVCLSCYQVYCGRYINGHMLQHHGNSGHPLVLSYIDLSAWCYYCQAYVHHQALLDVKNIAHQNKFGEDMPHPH
Assay: HDAC6 Enzyme Assay
Assay type: biochemical
In short: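 Deacetylated product quantified after trypsin digestion as released AMC (340/460 nm), following a 1 h, 30 °C reaction of human HDAC6 with Ac-RGK(Ac)-AMC peptide, quenched by trichostatin A. IC50 derived from DMSO-normalized curves.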

[1] = bin: greater than 500 nM and less than 1 μM (lower bound in nM, upper bound in μM)
[2] = purified human HDAC6, substrate Ac-Arg-Gly-Lys(Ac)-AMC, 1 hour at 30° C., reported as bins

| IC50 [2] | further results | Structure (SMILES) |
| --- | --- | --- |
|  | IC50 [1]: 500 to 1000 nM | Cn1c(C(=O)N[C@@H](c2ccc(C(=O)NO)cc2)C(F)(F)F)cc(Cl)c1Cl [Compound I-108, 4,5-dichloro-1-methyl-N-((1S)-2,2,2-trifluoro-1-{4-[(hydroxyamino)carbonyl]phenyl}ethyl)-1H-pyrrole-2-carboxamide] |
| < 100 nM |  | CC(NC(=O)c1cc(-c2ccccc2)n[nH]1)c1ccc(C(=O)NO)cc1 (stereo not drawn) [Compound I-109, N-(1-{4-[(hydroxyamino)carbonyl]phenyl}ethyl)-3-phenyl-1H-pyrazole-5-carboxamide] |
| < 100 nM |  | CC(NC(=O)C1(c2ccc(Cl)cc2)CCC1)c1ccc(C(=O)NO)cc1 (stereo not drawn) [Compound I-110, 4-[1-({[1-(4-chlorophenyl)cyclobutyl]carbonyl}amino)ethyl]-N-hydroxybenzamide] |
|  | IC50 (bin: greater than 1 μM): > 1000 nM | CC(C)CC(=O)NC(C)c1ccc(C(=O)NO)cc1 (stereo not drawn) [Compound I-111, N-hydroxy-4-{1-[(3-methylbutanoyl)amino]ethyl}benzamide] |
| < 100 nM |  | CC(C)C(NC(=O)c1cccs1)c1ccc(C(=O)NO)cc1 (stereo not drawn) [Compound I-112, N-(1-{4-[(hydroxyamino)carbonyl]phenyl}-2-methylpropyl)thiophene-2-carboxamide] |
| 100 to 500 nM |  | Cc1c(C(=O)N[C@H](C)c2cccc(C(=O)NO)c2)sc2ccccc12 [Compound I-113, N-((1R)-1-{3-[(hydroxyamino)carbonyl]phenyl}ethyl)-3-methyl-1-benzothiophene-2-carboxamide] |
| 100 to 500 nM |  | CC(NC(=O)c1c2c(nn1C)CCCC2)c1ccc(C(=O)NO)cc1 (stereo not drawn) [Compound I-114, N-(1-{4-[(hydroxyamino)carbonyl]phenyl}ethyl)-2-methyl-4,5,6,7-tetrahydro-2H-indazole-3-carboxamide] |
| < 100 nM |  | C[C@@H](NC(=O)c1cc2ccccc2n1C)c1ccc(C(=O)NO)cc1 [Compound I-115, N-((1R)-1-{4-[(hydroxyamino)carbonyl]phenyl}ethyl)-1-methyl-1H-indole-2-carboxamide] |
| < 100 nM |  | CC(C)C(NC(=O)c1cc(F)c(F)cc1F)c1ccc(C(=O)NO)cc1 (stereo not drawn) [Compound I-116, 2,4,5-trifluoro-N-(1-{4-[(hydroxyamino)carbonyl]phenyl}-2-methylpropyl)benzamide] |
| 100 to 500 nM |  | CC(NC(=O)c1csc2ccccc12)c1cccc(C(=O)NO)c1 (stereo not drawn) [Compound I-117, N-(1-{3-[(hydroxyamino)carbonyl]phenyl}ethyl)-1-benzothiophene-3-carboxamide] |
| < 100 nM |  | Cc1ccc(NC(=O)NC(C)c2ccc(C(=O)NO)cc2)cc1F (stereo not drawn) [Compound I-120, 4-[1-({[(3-fluoro-4-methylphenyl)amino]carbonyl}amino)ethyl]-N-hydroxybenzamide] |
| 100 to 500 nM |  | C[C@@H](NC(=O)c1ccc(-c2ccccc2)cc1)c1cccc(C(=O)NO)c1 [Compound I-121, N-((1R)-1-{3-[(hydroxyamino)carbonyl]phenyl}ethyl)biphenyl-4-carboxamide] |
| < 100 nM |  | COc1ccc(C(=O)N[C@@H](c2ccc(C(=O)NO)cc2)C(F)(F)F)cc1 [Compound I-122, 4-methoxy-N-((1S)-2,2,2-trifluoro-1-{4-[(hydroxyamino)carbonyl]phenyl}ethyl)benzamide] |
| 100 to 500 nM |  | CC(C)(C)C(NC(=O)c1cscn1)c1ccc(C(=O)NO)cc1 (stereo not drawn) [Compound I-123, N-(1-{4-[(hydroxyamino)carbonyl]phenyl}-2,2-dimethylpropyl)-1,3-thiazole-4-carboxamide] |
| < 100 nM |  | O=C(NO)c1ccc([C@@H](NC(=O)c2cc3ccccc3s2)c2ccccc2)cc1 [Compound I-124, N-[(S)-{4-[(hydroxyamino)carbonyl]phenyl}(phenyl)methyl]-1-benzothiophene-2-carboxamide] |
| < 100 nM |  | CC(NC(=O)c1cn2ccccc2n1)c1ccc(C(=O)NO)cc1 (stereo not drawn) [Compound I-125, N-(1-{4-[(hydroxyamino)carbonyl]phenyl}ethyl)imidazo[1,2-a]pyridine-2-carboxamide] |
| 100 to 500 nM |  | CC(C)[C@@H](NC(=O)C1(C)CCCCC1)c1ccc(C(=O)NO)cc1 [Compound I-126, N-hydroxy-4-((1R)-2-methyl-1-{[(1-methylcyclohexyl)carbonyl]amino}propyl)benzamide] |

| IC50 [2] | further results | Structure (SMILES) |
| --- | --- | --- |
| < 100 nM |  | CC(C)(C)C(NC(=O)c1cc2ccccc2[nH]1)c1ccc(C(=O)NO)cc1 (stereo not drawn) [Compound I-127, N-(1-{4-[(hydroxyamino)carbonyl]phenyl}-2,2-dimethylpropyl)-1H-indole-2-carboxamide] |
| < 100 nM |  | CC(NC(=O)c1ccc2ccccc2n1)c1ccc(C(=O)NO)cc1 (stereo not drawn) [Compound I-128, N-(1-{4-[(hydroxyamino)carbonyl]phenyl}ethyl)quinoline-2-carboxamide] |
| < 100 nM |  | Cc1ccc2[nH]c(C(=O)NC(c3ccc(C(=O)NO)cc3)C(C)(C)C)cc2c1 (stereo not drawn) [Compound I-129, N-(1-{4-[(hydroxyamino)carbonyl]phenyl}-2,2-dimethylpropyl)-5-methyl-1H-indole-2-carboxamide] |
| < 100 nM |  | CC(C)C(NC(=O)c1cc2cc(Cl)ccc2o1)c1ccc(C(=O)NO)cc1 (stereo not drawn) [Compound I-130, 5-chloro-N-(1-{4-[(hydroxyamino)carbonyl]phenyl}-2-methylpropyl)-1-benzofuran-2-carboxamide] |
| < 100 nM |  | CC(NC(=O)C1(C)CCCCC1)c1ccc(C(=O)NO)cc1 (stereo not drawn) [Compound I-132, N-hydroxy-4-(1-{[(1-methylcyclohexyl)carbonyl]amino}ethyl)benzamide] |
| 100 to 500 nM |  | Cn1cccc1C(=O)NC(c1ccc(C(=O)NO)cc1)C(C)(C)C (stereo not drawn) [Compound I-133, N-(1-{4-[(hydroxyamino)carbonyl]phenyl}-2,2-dimethylpropyl)-1-methyl-1H-pyrrole-2-carboxamide] |
| < 100 nM |  | CC(NC(=O)c1cccc2c1OCC2)c1ccc(C(=O)NO)cc1 (stereo not drawn) [Compound I-134, N-(1-{4-[(hydroxyamino)carbonyl]phenyl}ethyl)-2,3-dihydro-1-benzofuran-7-carboxamide] |
| < 100 nM |  | CC(C)C(NC(=O)c1ccc2nsnc2c1)c1ccc(C(=O)NO)cc1 (stereo not drawn) [Compound I-135, N-(1-{4-[(hydroxyamino)carbonyl]phenyl}-2-methylpropyl)-2,1,3-benzothiadiazole-5-carboxamide] |
| < 100 nM |  | CC(NC(=O)c1ccc(Cl)cc1)c1ccc(C(=O)NO)cc1 (stereo not drawn) [Compound I-136, 4-chloro-N-(1-{4-[(hydroxyamino)carbonyl]phenyl}ethyl)benzamide] |
|  | IC50 [1]: 500 to 1000 nM | CC(NC(=O)c1cc(F)cc(F)c1)c1cccc(C(=O)NO)c1 (stereo not drawn) [Compound I-137, 3,5-difluoro-N-(1-{3-[(hydroxyamino)carbonyl]phenyl}ethyl)benzamide] |
| < 100 nM |  | CC(NC(=O)c1ccc(-c2cnco2)cc1)c1ccc(C(=O)NO)cc1 (stereo not drawn) [Compound I-138, N-(1-{4-[(hydroxyamino)carbonyl]phenyl}ethyl)-4-(1,3-oxazol-5-yl)benzamide] |
|  | IC50 [1]: 500 to 1000 nM | Cc1nc(C(F)(F)F)c(C(=O)NC(c2ccc(C(=O)NO)cc2)C(C)C)s1 (stereo not drawn) [Compound I-139, N-(1-{4-[(hydroxyamino)carbonyl]phenyl}-2-methylpropyl)-2-methyl-4-(trifluoromethyl)-1,3-thiazole-5-carboxamide] |
| < 100 nM |  | CC(NC(=O)Nc1ccc(C(C)(C)C)cc1)c1ccc(C(=O)NO)cc1 (stereo not drawn) [Compound I-140, 4-[1-({[(4-tert-butylphenyl)amino]carbonyl}amino)ethyl]-N-hydroxybenzamide] |
| < 100 nM |  | CC(NC(=O)Nc1ccc(OC(F)(F)F)cc1)c1ccc(C(=O)NO)cc1 (stereo not drawn) [Compound I-141, N-hydroxy-4-{1-[({[4-(trifluoromethoxy)phenyl]amino}carbonyl)amino]ethyl}benzamide] |
| 100 to 500 nM |  | CC(NC(=O)c1ccc(-c2ccccc2)cc1)c1cccc(C(=O)NO)c1 (stereo not drawn) [Compound I-142, N-(1-{3-[(hydroxyamino)carbonyl]phenyl}ethyl)biphenyl-4-carboxamide] |
| < 100 nM |  | CC(C)C(NC(=O)c1ccc(-c2ccc(F)cc2)cc1)c1ccc(C(=O)NO)cc1 (stereo not drawn) [Compound I-143, 4′-fluoro-N-(1-{4-[(hydroxyamino)carbonyl]phenyl}-2-methylpropyl)biphenyl-4-carboxamide] |
